Source: patent US7541018B2, “Treatment process using somatostatin analogues” (University of Bern, priority 2001, dated 2009)
Bridge positions count the residues as written; N and C are the ends. Square brackets hold non-standard residues; d marks the D form. Peptide text beside a SMILES is read from it. * marks the point of attachment. DOTA = O=C(O)CN1CCN(CC(=O)O)CCN(CC(=O)*)CCN(CC(=O)O)CC1; dDab = NCC[C@@H](N)C(=O)O; GABA = NCCCC(=O)O

Columns and labels:
Test in all cases: Receptor autoradiography displacement of 125I-[Leu8,D-Trp22,Tyr25]-somatostatin 28 on membrane pellet sections
Format in all cases: binding
human sst3 = target: T1, human sst3 (Homo sapiens, UniProt P32745); settings: CCL39 cells stably expressing human sst3; sectioned membrane pellets; read-out: IC50 hsst3
T1 construct: expressed in transfected cells; host or cells: CCL39
T1 sequence (P32745 whole entry): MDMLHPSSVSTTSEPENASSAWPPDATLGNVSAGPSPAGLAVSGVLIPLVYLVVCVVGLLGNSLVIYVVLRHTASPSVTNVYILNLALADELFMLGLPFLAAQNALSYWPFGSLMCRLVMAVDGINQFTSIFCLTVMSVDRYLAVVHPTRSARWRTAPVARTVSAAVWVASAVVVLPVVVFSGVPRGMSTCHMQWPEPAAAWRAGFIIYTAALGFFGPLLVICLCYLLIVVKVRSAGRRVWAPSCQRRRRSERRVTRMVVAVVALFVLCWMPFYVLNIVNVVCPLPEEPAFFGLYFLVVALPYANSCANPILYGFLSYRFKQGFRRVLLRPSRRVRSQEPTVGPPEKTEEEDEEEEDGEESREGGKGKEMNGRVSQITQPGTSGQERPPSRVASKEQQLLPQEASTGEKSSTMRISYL
Description: (§1) Cell culture CHO-K1 cells stably expressing human sst1 and sst5 were kindly provided by Drs. T. Reisine and G. Singh (University of Pennsylvania, Philadelphia, Pa.) and CCL39 cells stably expressing human sst2, sst3, and sst4 by Dr. D. Hoyer (Novartis Pharma, Basel, Switzerland).
(§2) CHO-K1 cells were grown in Ham's F-12 medium and CCL39 cells in Dulbecco's modified Eagle's medium/Ham's F-12 (1:1) mix, supplemented with 10% fetal bovine serum, 100 μg/mL penicillin and 100 μg/mL streptomycin, in humidified air containing 5% CO2 at 37° C. Geneticin (G418-sulfate; Gibco, USA) was used where necessary to maintain selection pressure at a final concentration of 400 μg/mL for sst2 to sst4—and 285 μg/mL for sst5—expressing cells as described previously (Rens-Domiano S. & Reisine T., Biochemical and functional properties of somatostatin receptors, J. Neurochem., 58:1987-1996 (1992); O'Caroll A. et al., Characterization of cloned human somatostatin receptor SSTR5, Molec. Pharmacol., 46:291-298 (1994); Siehler S. et al., [^125I]Tyr^10-cortistatin14 labels all five somatostatin receptors, Naunyn-Schmiedeberg's Arch. Pharmacol., 357:483-489 (1998).).
(§3) Cells were washed twice with and scraped into ice-cold 0.05 M Tris-CHl (pH 7.4), collected by centrifugation, and homogenized using a rotor/stator slash system (POLYTRON®, Kinematica Inc., Littau, Switzerland) in the same buffer. After centrifugation at 120 g for 5 min at 4° C., the supernatant was collected and centrifuged again at 48,000 g for 30 min at 4° C. The resulting pellet was re-suspended in ice-cold Tris buffer, transferred into a microfuge tube, and centrifuged at 20,000 g for 15 min at 4° C. After withdrawal of the supernatant, the membrane pellet was stored at −80° C.
(§4) Receptor autoradiography was performed on 20 μm thick cryostat (Leitz 1720, Rockleigh, N.J.) sections of the membrane pellets, mounted on microscope slides, and then stored at −20° C.
(§5) IC50 values were calculated after quantification of the data using a computer-assisted image processing system as described previously (Reubi, J. C. et al., Detection of somatostatin receptors in surgical and percutaneous needle biopsy samples of carcinoids and islet cell carcinomas, Cancer Res. 50: 5969-5977 (1990).). Tissue standards (Autoradiographic [^125I] microscales, Amersham) that contain known amounts of isotope, cross-calibrated to tissue-equivalent ligand concentrations were used for quantification (Reubi, J. C., In vitro identification of vasoactive intestinal peptide receptors in human tumors: Implications for tumor imaging, J. Nucl. Med. 36: 1846-1853 (1995).).

human sst4 = target: T2, human sst4 (Homo sapiens, UniProt P31391); settings: CCL39 cells stably expressing human sst4; sectioned membrane pellets; read-out: IC50 hsst4
T2 construct: expressed in transfected cells; host or cells: CCL39
T2 sequence (P31391 whole entry): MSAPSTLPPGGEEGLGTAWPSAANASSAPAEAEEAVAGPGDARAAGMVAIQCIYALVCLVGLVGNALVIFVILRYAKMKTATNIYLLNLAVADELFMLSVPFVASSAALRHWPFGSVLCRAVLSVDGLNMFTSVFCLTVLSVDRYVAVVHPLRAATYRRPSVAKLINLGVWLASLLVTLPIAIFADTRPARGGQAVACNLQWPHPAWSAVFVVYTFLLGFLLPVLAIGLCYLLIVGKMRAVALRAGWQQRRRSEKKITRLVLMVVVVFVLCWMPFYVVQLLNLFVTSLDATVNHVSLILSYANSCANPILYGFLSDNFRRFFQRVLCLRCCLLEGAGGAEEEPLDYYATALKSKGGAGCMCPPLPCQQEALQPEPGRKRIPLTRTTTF
Description: as §1, §2, §3, §4, §5

human sst5 = target: T3, human sst5 (Homo sapiens, UniProt P35346); settings: CHO-K1 cells stably expressing human sst5; sectioned membrane pellets; read-out: IC50 hsst5
T3 construct: expressed in transfected cells; host or cells: CHO-K1
T3 sequence (P35346 whole entry): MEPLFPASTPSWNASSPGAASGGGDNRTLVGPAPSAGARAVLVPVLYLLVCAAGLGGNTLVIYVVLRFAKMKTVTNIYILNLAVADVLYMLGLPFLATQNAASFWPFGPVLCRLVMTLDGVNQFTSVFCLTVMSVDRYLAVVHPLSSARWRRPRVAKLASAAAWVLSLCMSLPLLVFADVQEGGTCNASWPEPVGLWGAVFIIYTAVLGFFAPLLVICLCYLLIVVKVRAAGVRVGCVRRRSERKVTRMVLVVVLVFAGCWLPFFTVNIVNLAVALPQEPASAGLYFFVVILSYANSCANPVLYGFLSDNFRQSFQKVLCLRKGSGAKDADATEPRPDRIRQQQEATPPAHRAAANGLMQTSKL
Description: as §1, §2, §3, §4, §5

human sst1 = target: T4, human sst1 (Homo sapiens, UniProt P30872); settings: CHO-K1 cells stably expressing human sst1; sectioned membrane pellets; read-out: IC50 hsst1
T4 construct: expressed in transfected cells; host or cells: CHO-K1
T4 sequence (P30872 whole entry): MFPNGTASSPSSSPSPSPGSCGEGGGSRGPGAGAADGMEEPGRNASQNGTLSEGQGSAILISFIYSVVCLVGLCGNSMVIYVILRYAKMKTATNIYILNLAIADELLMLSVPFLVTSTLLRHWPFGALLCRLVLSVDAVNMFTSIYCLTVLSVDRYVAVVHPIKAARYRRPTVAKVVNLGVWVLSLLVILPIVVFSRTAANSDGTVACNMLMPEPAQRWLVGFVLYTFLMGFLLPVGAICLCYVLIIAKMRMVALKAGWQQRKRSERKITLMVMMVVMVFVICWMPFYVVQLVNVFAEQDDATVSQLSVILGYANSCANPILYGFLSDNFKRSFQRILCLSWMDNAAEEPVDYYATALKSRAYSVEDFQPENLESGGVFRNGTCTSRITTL
Description: as §1, §2, §3, §4, §5

human sst2 = target: T5, human sst2 (Homo sapiens, UniProt P30874); settings: CCL39 cells stably expressing human sst2; sectioned membrane pellets; read-out: IC50 hsst2
T5 construct: expressed in transfected cells; host or cells: CCL39
T5 sequence (P30874 whole entry): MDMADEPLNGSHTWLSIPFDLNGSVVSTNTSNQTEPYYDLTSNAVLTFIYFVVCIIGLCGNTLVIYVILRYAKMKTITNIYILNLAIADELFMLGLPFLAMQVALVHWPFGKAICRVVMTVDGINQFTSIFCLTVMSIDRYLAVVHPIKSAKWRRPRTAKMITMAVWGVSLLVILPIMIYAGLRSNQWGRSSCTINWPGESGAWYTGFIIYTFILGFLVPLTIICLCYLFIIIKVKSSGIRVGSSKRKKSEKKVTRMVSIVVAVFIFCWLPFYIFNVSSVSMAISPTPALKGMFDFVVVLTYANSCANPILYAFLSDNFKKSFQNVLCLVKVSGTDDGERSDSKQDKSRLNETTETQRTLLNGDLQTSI
Description: as §1, §2, §3, §4, §5

IC50 (human sst3) | IC50 (human sst4) | IC50 (human sst5) | IC50 (human sst1) | IC50 (human sst2) | SMILES
1.7 nM | 0.68 nM | 0.57 nM | 10.5 nM |  | C[C@@H](O)[C@@H]1NC(=O)[C@H](CCCCN)NC(=O)[C@@H](Cc2c[nH]c3ccccc23)NC(=O)[C@H](Cc2ccc(O)cc2)NC(=O)[C@H](Cc2ccccc2)NC(=O)[C@H](CCCNC(=N)N)NC(=O)CCCNC(=O)[C@H](Cc2ccccc2)NC1=O [A with X4 is Tyr and X1 is GABA] (cyclo(F[GABA]RFY[dW]KT); ring closure inferred)
2 nM | 1 nM | 0.8 nM | 24.5 nM | 2.9 nM | C[C@@H](O)[C@@H]1NC(=O)[C@H](CCCCN)NC(=O)[C@@H](Cc2c[nH]c3ccccc23)NC(=O)[C@H](Cc2ccc(O)cc2)NC(=O)[C@H](Cc2ccccc2)NC(=O)[C@H](CCCNC(=N)N)NC(=O)[C@H](N)CCNC(=O)[C@H](Cc2ccccc2)NC1=O [A with X4 is Tyr] (H-[dDab]RFY[dW]KTF; lactam 1-C)
1.6 nM | 0.9 nM | 0.8 nM | 7.6 nM | 3 nM | C[C@@H](O)[C@@H]1NC(=O)[C@H](CCCCN)NC(=O)[C@@H](Cc2c[nH]c3ccccc23)NC(=O)[C@H](Cc2ccccc2)NC(=O)[C@H](Cc2ccccc2)NC(=O)[C@H](CCCNC(=N)N)NC(=O)[C@H](NC(=O)CN2CCN(CC(=O)O)CCN(CC(=O)O)CCN(CC(=O)O)CC2)CCNC(=O)[C@H](Cc2ccccc2)NC1=O [A, Z = DOTA] ({DOTA}-[dDab]RFF[dW]KTF; lactam 1-C)
3.2 nM | 15.3 nM | 6.8 nM | 172 nM |  | C[C@@H](O)[C@@H]1NC(=O)[C@H](CCCCN)NC(=O)[C@@H](Cc2c[nH]c3ccccc23)NC(=O)[C@H](Cc2ccccc2)NC(=O)[C@H](Cc2ccccc2)NC(=O)[C@H](CC(N)=O)NC(=O)CCCNC(=O)[C@H](Cc2ccccc2)NC1=O [minisomatostatin, reference compound] (cyclo(FF[dW]KTF[GABA]N))
